Laboratory results from patent US20160106439A1, “PNEUMATIC TOURNIQUET” (BIONUMERIK PHARMACEUTICALS, INC., priority 2013, published 2016).
Read-outs that look alike come from different tables or passages of the source.

Assays:
[1] = target: T1, mammalian thioredoxin reductase (TrxR) (Homo sapiens, UniProt Q16881); settings: cited from earlier work
T1 sequence (Q16881 1-499 isoform Q16881-5): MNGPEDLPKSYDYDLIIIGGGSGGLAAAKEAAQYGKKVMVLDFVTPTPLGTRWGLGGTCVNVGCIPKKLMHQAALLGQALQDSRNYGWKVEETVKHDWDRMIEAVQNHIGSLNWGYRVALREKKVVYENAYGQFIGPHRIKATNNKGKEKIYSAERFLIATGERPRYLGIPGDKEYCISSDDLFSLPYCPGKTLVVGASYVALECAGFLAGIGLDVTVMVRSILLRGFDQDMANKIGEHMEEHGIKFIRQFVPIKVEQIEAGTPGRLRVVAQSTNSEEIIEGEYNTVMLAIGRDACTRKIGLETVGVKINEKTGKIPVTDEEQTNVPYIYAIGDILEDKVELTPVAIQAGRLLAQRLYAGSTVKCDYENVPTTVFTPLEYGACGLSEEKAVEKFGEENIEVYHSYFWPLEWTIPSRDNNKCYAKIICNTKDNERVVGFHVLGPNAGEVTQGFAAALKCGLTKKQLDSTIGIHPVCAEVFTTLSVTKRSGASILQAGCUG

[2] = target: T2, glutathione reductase (GR) (Homo sapiens, UniProt P00390); settings: cited from earlier work
T2 sequence (P00390 44-522): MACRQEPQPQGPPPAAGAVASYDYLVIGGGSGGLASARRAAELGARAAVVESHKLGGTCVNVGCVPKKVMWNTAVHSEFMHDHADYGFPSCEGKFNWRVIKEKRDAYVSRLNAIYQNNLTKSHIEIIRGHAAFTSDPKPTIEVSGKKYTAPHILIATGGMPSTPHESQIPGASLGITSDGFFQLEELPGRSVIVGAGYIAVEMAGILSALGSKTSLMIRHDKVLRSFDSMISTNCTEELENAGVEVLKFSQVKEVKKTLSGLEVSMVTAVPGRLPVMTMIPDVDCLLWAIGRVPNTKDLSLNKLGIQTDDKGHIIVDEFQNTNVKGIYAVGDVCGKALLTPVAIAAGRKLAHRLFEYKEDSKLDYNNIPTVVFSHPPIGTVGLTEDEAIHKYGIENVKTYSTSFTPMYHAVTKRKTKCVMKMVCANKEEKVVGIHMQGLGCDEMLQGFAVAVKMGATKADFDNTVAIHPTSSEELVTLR

[3] = target: T3, Recombinant human Trx (Homo sapiens, UniProt P10599); assay: LC MS of Trypsin digested Trx after incubation with Tavocept, mesna or glutathione; type: binding; set-up: purchased Sigma (SigmaAldrich); host or cells: E. coli; settings: control reactions with glutathione
T3 sequence (P10599 1-105): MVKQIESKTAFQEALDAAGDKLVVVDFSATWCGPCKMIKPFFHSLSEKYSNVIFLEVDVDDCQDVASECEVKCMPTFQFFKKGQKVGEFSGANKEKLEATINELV

[4] = target: WT EGFR kinase (Homo sapiens, UniProt P00533); assay: WT EGFR kinase assay (ADP-glo); settings: for potentiation of Erlotinib inhibition of WT EGFR kinase activity: 10 μM and 100 μM ATP
[5] = target: T790M EGFR kinase (Homo sapiens, UniProt P00533, T790M); assay: T790M EGFR kinase assay (ADP-glo); type: biochemical; settings: for IC50: read-out: IC50 on T790M EGFR kinase activity; for potentiation of Erlotinib inhibition of T790M EGFR kinase activity: 10 μM and 100 μM ATP
[6] = tested on: bovine brain microtubule protein (α-/β-tubulin); assay: Microtubule protein polymerization assay (OD350) and electron microscopy; type: biochemical; settings: monoaquocisplatin 36 μM
[7] = target: ErbB-3 (Homo sapiens, UniProt P21860); set-up: key: the “+” and “−” symbols signify the ability and inability to activate each of the ErbB receptors, respectively; the “+” and “−” symbols signify the ability and inability to activate each of the ErbB receptors, respectively; settings: ability to activate the receptor; cited from earlier work
[8] = target: ErbB-4 (Homo sapiens, UniProt Q15303); set-up: key: the “+” and “−” symbols signify the ability and inability to activate each of the ErbB receptors, respectively; the “+” and “−” symbols signify the ability and inability to activate each of the ErbB receptors, respectively; settings: ability to activate the receptor; cited from earlier work
Chain of ErbB-4 (Q15303 26-1308, species assumed): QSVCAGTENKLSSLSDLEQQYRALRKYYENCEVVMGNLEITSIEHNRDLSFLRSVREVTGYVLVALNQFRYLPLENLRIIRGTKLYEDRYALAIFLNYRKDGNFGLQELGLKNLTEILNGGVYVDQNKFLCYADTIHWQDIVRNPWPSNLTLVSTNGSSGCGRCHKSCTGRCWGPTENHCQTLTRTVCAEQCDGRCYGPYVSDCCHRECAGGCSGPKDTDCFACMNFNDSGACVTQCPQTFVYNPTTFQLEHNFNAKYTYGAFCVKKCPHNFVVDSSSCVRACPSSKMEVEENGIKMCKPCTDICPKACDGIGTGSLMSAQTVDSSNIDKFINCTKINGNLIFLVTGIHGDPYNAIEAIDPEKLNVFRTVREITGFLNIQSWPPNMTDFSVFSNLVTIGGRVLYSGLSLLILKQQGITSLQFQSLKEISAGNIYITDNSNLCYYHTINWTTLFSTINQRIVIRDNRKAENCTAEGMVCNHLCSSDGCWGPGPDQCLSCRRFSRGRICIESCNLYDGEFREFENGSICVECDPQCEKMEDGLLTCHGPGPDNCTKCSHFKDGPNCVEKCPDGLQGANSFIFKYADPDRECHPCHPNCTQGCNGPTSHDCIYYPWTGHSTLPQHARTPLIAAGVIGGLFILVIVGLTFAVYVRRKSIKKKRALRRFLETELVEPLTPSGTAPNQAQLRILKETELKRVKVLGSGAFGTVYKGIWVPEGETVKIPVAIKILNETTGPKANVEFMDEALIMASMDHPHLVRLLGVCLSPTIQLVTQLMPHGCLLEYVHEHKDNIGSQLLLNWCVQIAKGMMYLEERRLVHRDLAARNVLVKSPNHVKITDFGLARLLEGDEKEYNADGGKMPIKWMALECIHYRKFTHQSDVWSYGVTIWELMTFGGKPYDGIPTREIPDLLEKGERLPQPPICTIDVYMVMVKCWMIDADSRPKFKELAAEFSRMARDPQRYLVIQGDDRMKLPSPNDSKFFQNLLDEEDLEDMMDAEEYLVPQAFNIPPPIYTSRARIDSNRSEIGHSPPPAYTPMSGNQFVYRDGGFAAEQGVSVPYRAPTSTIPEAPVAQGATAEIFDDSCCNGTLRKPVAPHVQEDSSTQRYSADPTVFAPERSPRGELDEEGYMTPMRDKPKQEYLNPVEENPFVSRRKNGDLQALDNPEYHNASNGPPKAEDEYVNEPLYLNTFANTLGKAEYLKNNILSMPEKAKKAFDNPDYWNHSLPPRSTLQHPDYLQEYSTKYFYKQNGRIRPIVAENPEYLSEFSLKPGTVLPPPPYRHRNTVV

[9] = target: ErbB-2 (Homo sapiens, UniProt P04626); set-up: key: the “+” and “−” symbols signify the ability and inability to activate each of the ErbB receptors, respectively; the “+” and “−” symbols signify the ability and inability to activate each of the ErbB receptors, respectively; settings: ability to activate the receptor; cited from earlier work
[10] = target: ErbB-1 (Homo sapiens, UniProt P00533); settings: ability to activate the receptor; cited from earlier work
[11] = IC50 on WT EGFR kinase activity, 10 μM ATP
[12] = IC50 on WT EGFR kinase activity, 100 μM ATP
[13] = IC50 on WT EGFR kinase activity, 250 μM ATP, conducted only once
[14] = read-out: IC50 on WT EGFR kinase activity, 10 μM ATP
[15] = read-out: IC50 on WT EGFR kinase activity, 100 μM ATP
[16] = read-out: IC50 on WT EGFR kinase activity, 250 μM ATP, conducted only once

CC1=C(/C=C/C(C)=C/C=C/C(C)=C\C(=O)O)C(C)(C)CCC1 [13-cis-retinoic acid]
Inhibition of TrxR [1]: irreversible inhibition

CS(=O)(=O)OCCCCOS(C)(=O)=O [busulfan]
Inhibition of GR [2]: not GR
Inhibition of TrxR [1]: irreversibly inhibited

N.N.O=C([O-])C1(C(=O)[O-])CCC1.[Pt+2] [carboplatin]
Inhibition of GR [2]: could not inhibit
Inhibition of TrxR [1]: could not inhibit

O=NN(CCCl)C(=O)NCCCl [carmustine]
Inhibition of GR [2]: can inhibit
Inhibition of TrxR [1]: can inhibit

O=C(O)CCCc1ccc(N(CCCl)CCCl)cc1 [chlorambucil]
Inhibition of GR [2]: not GR
Inhibition of TrxR [1]: irreversibly inhibited

N.N.[Cl][Pt][Cl] [cisplatin]
Inhibition of GR [2]: not GR
Inhibition of TrxR [1]: irreversibly inhibited

O=P1(N(CCCl)CCCl)NCCCO1 (stereo not shown) [cyclophosphamide]
Inhibition of GR [2]: not GR
Inhibition of TrxR [1]: irreversibly inhibited

COc1cccc2c1C(=O)c1c(O)c3c(c(O)c1C2=O)C[C@@](O)(C(C)=O)C[C@@H]3O[C@H]1C[C@H](N)[C@H](O)[C@H](C)O1 [daunorubicin]
Inhibition of TrxR [1]: not inhibitors

COc1cccc2c1C(=O)c1c(O)c3c(c(O)c1C2=O)C[C@@](O)(C(=O)CO)C[C@@H]3O[C@H]1C[C@H](N)[C@H](O)[C@H](C)O1 [doxorubicin]
Inhibition of TrxR [1]: not inhibitors

N[C@@H](CCC(=O)N[C@@H](CS)C(=O)NCC(=O)O)C(=O)O [glutathione, γ-glutamyl-cysteinyl-glycine, reference compound]
Glutathione adduct on Trx [3]: glutathionylated at cysteine-73 (Cys73)

O=P1(NCCCl)OCCCN1CCCl (stereo not shown) [ifosfamide]
Inhibition of TrxR [1]: inhibited

N[C@@H](Cc1ccc(N(CCCl)CCCl)cc1)C(=O)O [melphalan]
Inhibition of GR [2]: not GR
Inhibition of TrxR [1]: irreversibly inhibited

NC(CSSCCS(=O)(=O)O)C(=O)O (stereo not shown) [mesna-cysteine]
potentiation of Erlotinib inhibition of WT EGFR kinase activity [4]: effectively potentiated
IC50 [4, 11]: 2750 ± 800 µM
IC50 [4, 12]: 2650 ± 110 µM
IC50 [4, 13]: 2870 µM
IC50 ([5]; 10 μM ATP): 3760 ± 260 µM
potentiation of Erlotinib inhibition of T790M EGFR kinase activity [5]: effectively potentiated
IC50 ([5]; 100 μM ATP): 3030 ± 280 µM

NC(CSSCCS(=O)(=O)O)C(=O)NC(CCC(=O)O)C(=O)O (stereo not shown) [mesna-cysteinylglutamate]
potentiation of Erlotinib inhibition of WT EGFR kinase activity [4]: effectively potentiated
IC50 [4, 14]: 714 ± 120 µM
IC50 [4, 15]: 815 ± 20 µM
IC50 [4, 16]: 690 µM
IC50 ([5]; 10 μM ATP): 1090 ± 190 µM
potentiation of Erlotinib inhibition of T790M EGFR kinase activity [5]: effectively potentiated
IC50 ([5]; 100 μM ATP): 1050 ± 80 µM

NC(CSSCCS(=O)(=O)O)C(=O)NCC(=O)O (stereo not shown) [mesna-cysteinylglycine]
potentiation of Erlotinib inhibition of WT EGFR kinase activity [4]: effectively potentiated
IC50 [4, 11]: 445 ± 80 µM
IC50 [4, 12]: 370 ± 121 µM
IC50 [4, 13]: 320 µM
IC50 ([5]; 10 μM ATP): 510 ± 10 µM
potentiation of Erlotinib inhibition of T790M EGFR kinase activity [5]: effectively potentiated
IC50 ([5]; 100 μM ATP): 410 ± 50 µM

NC(CCC(=O)NC(CSSCCS(=O)(=O)O)C(=O)NCC(=O)O)C(=O)O (stereo not shown) [mesna-glutathione]
potentiation of Erlotinib inhibition of WT EGFR kinase activity [4]: effectively potentiated
IC50 [4, 14]: 724 ± 220 µM
IC50 [4, 15]: 820 ± 240 µM
IC50 [4, 16]: 1570 µM
IC50 ([5]; 10 μM ATP): 1280 ± 290 µM
potentiation of Erlotinib inhibition of T790M EGFR kinase activity [5]: effectively potentiated
IC50 ([5]; 100 μM ATP): 1170 ± 10 µM

N.N.O.[Cl][Pt+] [monoaquocisplatin, reference compound]
effect of extended exposure on microtubule protein polymerization [6]: notable and reproducible loss

O=C1[O][Pt]2([NH][C@@H]3CCCC[C@H]3[NH]2)[O]C1=O [oxaliplatin]
Inhibition of GR [2]: not GR
Inhibition of TrxR [1]: irreversibly inhibited

N.N.[Cl][Pt+2][Cl] [transplatin]
Inhibition of GR [2]: not GR
Inhibition of TrxR [1]: irreversibly inhibited

EGF: growth factor ligand of ErbB receptors
ErbB-3 [7]: −
ErbB-4 [8]: −
ErbB-2 [9]: −

HB-EGF: growth factor ligand of ErbB receptors
ErbB-3 [7]: −
ErbB-4 [8]: +
ErbB-2 [9]: −
ErbB-1 [10]: +

TGF-α: growth factor ligand of ErbB receptors
ErbB-3 [7]: −
ErbB-4 [8]: −
ErbB-2 [9]: −

amphiregulin: growth factor ligand of ErbB receptors
ErbB-3 [7]: −
ErbB-4 [8]: −
ErbB-2 [9]: −
ErbB-1 [10]: +

betacellulin: growth factor ligand of ErbB receptors
ErbB-3 [7]: −
ErbB-4 [8]: +
ErbB-2 [9]: −
ErbB-1 [10]: +

epiregulin: growth factor ligand of ErbB receptors
ErbB-3 [7]: −
ErbB-4 [8]: +
ErbB-2 [9]: −
ErbB-1 [10]: +

neuregulin 1
ErbB-3 [7]: +
ErbB-4 [8]: +
ErbB-2 [9]: −
ErbB-1 [10]: −

B1: epigen: growth factor ligand of ErbB receptors (protein, UniProt Q6UW88 23-154, looked up)
Epigen: AAVTVTPPITAQQGNWTVNKTEADNIEGPIALKFSHLCLEDHNSYCINGACAFHHELEKAICRCFTGYTGERCEHLTLTSYAVDSYEKYIAIGIGVGLLLSGFLVIFYCYIRKRCLKLKSPYNVCSGERRPL
ErbB-3 [7]: −
ErbB-4 [8]: −
ErbB-2 [9]: −
ErbB-1 [10]: +
